The text below walks through data of the supplement of paper PMC12137928.

In the assay the test system is HCT116. The note with it: 72 h. An outline of the steps:
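For IC50 and maximal efficacy, four-parameter Hill fits were used. Input values were CellTiter-Glo luminescence from HCT116 cells seeded at 250 per well in 1536-well plates, normalized to vehicle (0%) and positive control (-100%). Pattern correction followed normalization.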

Structures can show the parent of a compound that is named as a salt. A value given as a limit tells only on which side of the number the result lay.

Regarding `O=c1ccc2cc(O[C@@H]3O[C@H](CO)[C@@H](O)[C@H](O)[C@H]3O)c(O)cc2o1` [Esculin hydrate], the IC50 cell viability reads like this: (ICRF193 0 nM) over 45.8 µM; (ICRF193 200 nM) over 45.8 µM.

Regarding `O=[N+]([O-])c1cc([As](=O)(O)O)ccc1O` [4-Hydroxy-3-nitrophenylarsonic acid], the IC50 cell viability was over 45.8 µM (ICRF193 0 nM) and over 45.8 µM (ICRF193 200 nM).

Turning to `O=C1CC[C@@H](C(=O)O)N1` [2-Pyrrolidone-5-carboxylic acid], the IC50 cell viability reads like this: (ICRF193 0 nM) over 45.8 µM; (ICRF193 200 nM) over 45.8 µM.

Consider `CCC(C)(Oc1ccc(C2(c3ccc(OC(C)(CC)C(=O)O)cc3)CCCCC2)cc1)C(=O)O` (stereo unspecified) [Clinofibrate], for which the IC50 cell viability is, setting by setting: (ICRF193 0 nM) over 45.8 µM; (ICRF193 200 nM) over 45.8 µM.

In turn, `CCCCCOc1ccc(C2SC(=O)NC2=O)cc1OCC` (stereo unspecified) [Risarestat] displayed an IC50 cell viability (ICRF193 0 nM) of over 45.8 µM and an IC50 cell viability (ICRF193 200 nM) of over 45.8 µM.

Turning to `Nc1c(CC(=O)O)cccc1C(=O)c1ccccc1` [Amfenac Sodium], the IC50 cell viability by setting is: (ICRF193 0 nM) over 45.8 µM; (ICRF193 200 nM) over 45.8 µM.

`O=S(=O)(O)CCCS(=O)(=O)O` [1,3-Propanedisulfonic acid disodium salt]: the IC50 cell viability (ICRF193 0 nM) was over 45.8 µM and the IC50 cell viability (ICRF193 200 nM) is over 45.8 µM.

As to `C=C1C[C@@H]2[C@H](CC[C@]3(C)C(=O)CC[C@@H]23)[C@@]2(C)C=CC(=O)C=C12` [Exemestane], the IC50 cell viability by setting is: (ICRF193 0 nM) over 45.8 µM; (ICRF193 200 nM) over 45.8 µM.

For `CC1C=CC=CCCC=CC=CC=CC=CC(OC2OC(C)C(O)C(N)C2O)CC2OC(O)(CC(O)C(O)CCC(O)CC(O)CC(O)CC(=O)OC(C)C(C)C1O)CC(O)C2C(=O)O` (stereo unspecified) [NYSTATIN], the IC50 cell viability reads like this: (ICRF193 0 nM) over 45.8 µM; (ICRF193 200 nM) over 45.8 µM.

As for `Nc1nc2c(ncn2COC(CO)CO)c(=O)[nH]1` [Ganciclovir], the IC50 cell viability (ICRF193 0 nM) is over 45.8 µM and the IC50 cell viability (ICRF193 200 nM) is over 45.8 µM.

Turning to `OC(CCN1CCCC1)(c1ccccc1)C1CCCCC1` (stereo unspecified) [Procyclidine hydrochloride], the IC50 cell viability by setting is: (ICRF193 0 nM) over 45.8 µM; (ICRF193 200 nM) over 45.8 µM.

Take `CC1CCc2c(N3CCC(O)CC3)c(F)cc3c(=O)c(C(=O)O)cn1c23` (stereo unspecified) [Nadifloxacin]: the IC50 cell viability reads like this: (ICRF193 0 nM) over 45.8 µM; (ICRF193 200 nM) over 45.8 µM.

For `C[N+]12CCCCC1CCC(=C(c1cccs1)c1cccs1)C2` (stereo unspecified) [Tiquizium bromide], the IC50 cell viability reads like this: (ICRF193 0 nM) over 45.8 µM; (ICRF193 200 nM) over 45.8 µM.

For `C=CCCCCCCCCC(=O)[O-].C=CCCCCCCCCC(=O)[O-].[Ca+2]` [Calcium undecylenate], the IC50 cell viability by setting is: (ICRF193 0 nM) over 45.8 µM; (ICRF193 200 nM) over 45.8 µM.

Take `O=C(O)c1cc(O)c2c3nc4ccccc4oc-3cc(=O)c2n1` [Pirenoxine Sodium]: the IC50 cell viability was over 45.8 µM (ICRF193 0 nM) and over 45.8 µM (ICRF193 200 nM).

Regarding `CN(CC(O)CO)C(=O)c1c(I)c(NC(=O)C(CO)CO)c(I)c(C(=O)N(C)CC(O)CO)c1I` (stereo unspecified) [IOBITRIDOL], the IC50 cell viability was over 45.8 µM (ICRF193 0 nM) and over 45.8 µM (ICRF193 200 nM).

Regarding `CO[C@@]1(NC(=O)CSC(F)F)C(=O)N2C(C(=O)O)=C(CSc3nnnn3CCO)CO[C@@H]21` [Flomoxef], the IC50 cell viability runs as follows: (ICRF193 0 nM) over 45.8 µM; (ICRF193 200 nM) over 45.8 µM.

Compound `C=C1/C(=C\C=C2/CCC[C@]3(C)[C@@H]([C@H](C)OCCC(C)(C)O)CC[C@@H]23)C[C@@H](O)C[C@@H]1O` [Maxacalcitol-D6] had an IC50 cell viability (ICRF193 0 nM) of over 45.8 µM and an IC50 cell viability (ICRF193 200 nM) of over 45.8 µM.

Take `NCc1ccccc1CC(=O)N[C@@H]1C(=O)N2C(C(=O)O)=C(CSc3nnnn3CC(=O)O)CS[C@H]12` [Ceforanide]: the IC50 cell viability is, setting by setting: (ICRF193 0 nM) over 45.8 µM; (ICRF193 200 nM) over 45.8 µM.

Regarding `COc1ccc2c(=O)c(C)c(-c3ccccc3)oc2c1CN(C)C` [Dimefline hydrochloride], the IC50 cell viability is, setting by setting: (ICRF193 0 nM) over 45.8 µM; (ICRF193 200 nM) over 45.8 µM.

As for `CN1CCCN=C1/C=C/c1cccs1` [Pyrantel tartrate], the IC50 cell viability by setting is: (ICRF193 0 nM) over 45.8 µM; (ICRF193 200 nM) over 45.8 µM.

Consider `CN1C(=O)CCS(=O)(=O)C1c1ccc(Cl)cc1` (stereo unspecified) [Chlormezanone], for which the IC50 cell viability runs as follows: (ICRF193 0 nM) over 45.8 µM; (ICRF193 200 nM) over 45.8 µM.

Compound `COc1ccc(CN(CCN(C)C)c2ncccn2)cc1` [Thonzylamine hydrochloride] returned an IC50 cell viability (ICRF193 0 nM) of over 45.8 µM and an IC50 cell viability (ICRF193 200 nM) of over 45.8 µM.

As for `Cn1c(NCCN(CCO)CCCc2ccc([N+](=O)[O-])cc2)cc(=O)n(C)c1=O` [Nifekalant], the IC50 cell viability reads like this: (ICRF193 0 nM) over 45.8 µM; (ICRF193 200 nM) over 45.8 µM.

For the compound `CC(C)COC(=O)c1ccc(N)cc1` [Isocaine], the IC50 cell viability was over 45.8 µM (ICRF193 0 nM) and over 45.8 µM (ICRF193 200 nM).

Consider `CCCCCCCCCCCCCCCC(=O)OC(C)C` [Hexadecanoic acid, 1-methylethyl ester], for which the IC50 cell viability is over 45.8 µM (ICRF193 0 nM) and over 45.8 µM (ICRF193 200 nM).

In turn, `CC1(C)S[C@@H]2[C@H](/N=C/N3CCCCCC3)C(=O)N2[C@H]1C(=O)O` [Amdinocillin] displayed an IC50 cell viability (ICRF193 0 nM) of over 45.8 µM and an IC50 cell viability (ICRF193 200 nM) of over 45.8 µM.

For the compound `CCCOc1ccc2nc(NC(=O)OC)sc2c1` [Tioxidazole], the IC50 cell viability was over 45.8 µM (ICRF193 0 nM) and over 45.8 µM (ICRF193 200 nM).
